Laboratory results from patent US20230183705A1, “PRODUCTS FOR SUPPRESSING OR REDUCING THE EXPRESSION OR ACTIVITY OF A SNORNA AND USES THEREOF IN THE TREATMENT OF CANCER” (NINOVAX, priority 2020, published 2023).

Columns and labels:
Type in all cases: cell-based, human
Ribosomes pathways = assay: Transcriptomic analysis (RNA-seq) with KEGG analysis in HCT116 cells; conditions: HCT116, siRNA treated versus non-treated cells
Method: Briefly, 99 genes over 138 genes of this pathway are deregulated.
The effect of the knock-down of the snoRNA-jouvence in HCT116 cells was assessed by the transfection of short interfering RNA (siRNA). First, the cells were seeded in 12-well plates (in triplicates), with the following number of cells per well: HCT116 and MCF7: 3.0×10^4, K562: 2.5 x10^4, A549: 2.0x10^4, and U87: 6.0x10^4. […] Cell suspensions were directly transfected with the corresponding siRNA (reverse transfection) at a final concentration of 10 nM per well, using the Lipofectamine RNAiMAX transfection reagent (ThermoFisher Scientific, USA). Forty-eight hours after the first siRNA reverse transfection, a forward transfection was performed on the adherent cells (at the same concentration as the first reverse transfection). Again, forty-eight hours after the siRNA forward transfection, a second forward transfection was performed on the adherent cells (at the same concentration). Then, after 72 h (meaning at J7 from the starting point), the medium was changed and cells were counted and compared to the different controls. For the RNA extraction and RNA-seq analysis performed in HCT116 cells, cell pellets were made under the same conditions (at J7). Experiments were performed in triplicates and the specific knock-down of the snoRNA-jouvence was validated by standard RT-qPCR (TaqMan). […]
In brief, technically, RNA concentration was measured using Qubit® RNA Assay Kit in Qubit® 2.0 Flurometer (Life Technologies, CA, USA). RNA integrity was assessed using the RNA Nano 6000 Assay Kit of the Bioanalyzer 2100 system (Agilent Technologies, CA, USA). […] At last, PCR products were purified (AMPure XP system) and library quality was assessed on the Agilent Bioanalyzer 2100 system. […] After cluster generation, the library preparations were sequenced on an Illumina Hiseq platform and 125 bp/150 bp paired-end reads were generated. […]

snoRNA-jouvence = assay: Expression of the snoRNA-jouvence by RT-qPCR (Taqman) in siRNA-treated HCT116 cells; conditions: siRNA-treated HCT116 cells compared to non-treated control HCT116 cells, siRNA 10 nM
Method: (§1) The siRNA treatment consists of three reverse transfections applied at day 0, day 2, day 4, followed by the determination of the number of cells at day 7 for A-B-C-D. For E, a single treatment has been done at day 0, and the number of cells was counted two days later. siRNA was used at a concentration of 10 nM. Five different human cancer cell lines were used. A) HCT116 cells (colon cancer), B) MCF7 cells (breast cancer), C) U87 cells (glioblastoma), D) A549 cells (lung cancer), and E) K562 cells (leukemia). In siRNA-treated cells, inventors observed a strong reduction of the number of cells, by about 50% or more, except in E in which the reduction was about 10% probably due to the fact that only a single treatment has been performed. […] In si-RNA treated cells, inventors observed a 40% reduction of snoRNA-jouvence expression.
The effect of the knock-down of the snoRNA-jouvence in HCT116 cells was assessed by the transfection of short interfering RNA (siRNA). First, the cells were seeded in 12-well plates (in triplicates), with the following number of cells per well: HCT116 and MCF7: 3.0×10^4, K562: 2.5 x10^4, A549: 2.0x10^4, and U87: 6.0x10^4. […] Then, after 72 h (meaning at J7 from the starting point), the medium was changed and cells were counted and compared to the different controls. […]

[1] = test system: HCT116 cells (colon cancer); assay: Cell proliferation (cell counting) after siRNA knock-down of snoRNA-jouvence; conditions: siRNA 10 nM, three transfections at day 0, 2, 4, cells counted at day 7
Method: as §1
(§2) All human cancer cell lines were provided from ATCC. HCT116 were cultured in McCoy’s 5A medium (Gibco, Invitrogen, USA), supplemented with 10% Fetal Bovine Serum (FBS) (Biowest, France). MCF7, A549, and K562 cells were cultured in RPMI 1640 + Glutamax medium (Gibco, Invitrogen, USA), supplemented with 10% Fetal Bovine Serum (FBS) (Biowest, France). U87 cells were cultured in Dulbecco’s modified Eagle’s medium (DMEM) (Gibco), supplemented with 10% FBS. Cells were incubated at 37° C. in a humidified atmosphere containing 5% CO2. The medium was changed every two days, and cells were transferred using 0.05% trypsin/EDTA (Gibco Invitrogen).
(§3) The effect of the knock-down of the snoRNA-jouvence in HCT116 cells was assessed by the transfection of short interfering RNA (siRNA). First, the cells were seeded in 12-well plates (in triplicates), with the following number of cells per well: HCT116 and MCF7: 3.0×10^4, K562: 2.5 x10^4, A549: 2.0x10^4, and U87: 6.0x10^4. […] Cell suspensions were directly transfected with the corresponding siRNA (reverse transfection) at a final concentration of 10 nM per well, using the Lipofectamine RNAiMAX transfection reagent (ThermoFisher Scientific, USA). Forty-eight hours after the first siRNA reverse transfection, a forward transfection was performed on the adherent cells (at the same concentration as the first reverse transfection). Again, forty-eight hours after the siRNA forward transfection, a second forward transfection was performed on the adherent cells (at the same concentration). Then, after 72 h (meaning at J7 from the starting point), the medium was changed and cells were counted and compared to the different controls. For the RNA extraction and RNA-seq analysis performed in HCT116 cells, cell pellets were made under the same conditions (at J7). Experiments were performed in triplicates and the specific knock-down of the snoRNA-jouvence was validated by standard RT-qPCR (TaqMan).
(§4) Study was performed in five different human cancer cell lines, HCT116 cells (colon cancer), MCF7 cells (breast cancer), U87 cells (glioblastoma), A549 cells (lung cancer), and K562 cells (leukemia). The proliferation rate of siRNA-treated cells (snoRNA jouvence knock-down) compared to non-treated Control cells was analysed by cell counting at J7. Briefly, the supernatant was harvested and cells washed with PBS 1X. Then, cells were trypsinized with 300 µl of 0.05% trypsin/EDTA (Gibco) per well. Trypsine was inactivated with 700 µL of the corresponding medium per well, and then counted with the VicellXR (Cell viability Analyzer, Beckman Coulter).

K562 cells (leukemia) = assay: as above; conditions: siRNA 10 nM, single treatment at day 0, cells counted two days later
Method: as §1, §2, §3, §4

U87 cells (glioblastoma) = assay: as above; conditions: siRNA 10 nM, three transfections at day 0, 2, 4, cells counted at day 7
Method: as §1, §2, §3, §4

A549 cells (lung cancer) = assay: as above; conditions: siRNA 10 nM, three transfections at day 0, 2, 4, cells counted at day 7
Method: as §1, §2, §3, §4

[2] = test system: MCF7 cells (breast cancer); assay: as above; conditions: siRNA 10 nM, three transfections at day 0, 2, 4, cells counted at day 7
Method: as §1, §2, §3, §4

siRNA: silencer selected siRNA (Lock-Nucleotide-Acid siRNA) comprising SEQ ID NO: 3 as sense and SEQ ID NO: 4 as antisense sequence, against snoRNA-jouvence (sense GGCUAUUGUGGACAGAGGA; antisense UCCUCUGUCCACAAUAGCC; Silencer Select LNA-modified siRNA, pattern not given here)
deregulated genes of the Ribosomes pathways (over 138 genes) (Ribosomes pathways): 99 genes
downregulated genes of the Ribosomes pathways (Ribosomes pathways): 92 genes
upregulated genes of the Ribosomes pathways (Ribosomes pathways): 7 genes
reduction of snoRNA-jouvence expression (snoRNA-jouvence): 40%
reduction of the number of cells [1]: ≥ 50%
reduction of the number of cells (K562 cells (leukemia)): about 10%
reduction of the number of cells (U87 cells (glioblastoma)): ≥ 50%
reduction of the number of cells (A549 cells (lung cancer)): ≥ 50%
reduction of the number of cells [2]: ≥ 50%
